Laboratory results as given in paper PMC8426237, “A first-in-human phase I study of TAS0728, an oral covalent binding inhibitor of HER2, in patients with advanced solid tumors with HER2 or HER3 aberrations” (Investigational New Drugs, 2021).

Assay: Phase I safety assessment: adverse events (CTCAE v5.0) in patients
[1] = 50-mg dose level cohort, 2 of 3
[2] = Dose Level 1: 50 mg BID (N = 3)
[3] = Dose Level 2: 100 mg BID (N = 3)
[4] = Dose Level 3: 200 mg BID (N = 7)

Experimental: A DLT was defined as a study treatment-related adverse event (TRAE), according to the Common Terminology Criteria for Adverse Events (CTCAE, Version 5.0), with qualifying criteria for certain DLTs (e.g., Grade ≥ 3 diarrhea, was included as a DLT only if lasting >48 h and unresponsive to intensive antidiarrheal medication).
Patients were closely monitored for these potential toxicities during the current study. Safety assessments included recording of AEs and serious AEs (SAEs) from the time of signing the study informed consent form to 30 days after the last dose of study medication. Safety parameters including laboratory evaluations (hematology, coagulation, chemistry, and urinalysis), vital sign measurements and body weight, electrocardiogram (ECG) recordings, ECOG performance status, echocardiogram or multi-gated acquisition (MUGA), and physical examination were assessed at screening, during the study and at 30 days following the last dose. The use of concomitant medications was permitted and details for such medications were recorded.

## C=CC(=O)N1CCC[C@@H](n2nc(C(=O)Nc3ccc(CC(=O)N(C)C)c(C)c3C)c3c(N)ncnc32)C1 [TAS0728]
50 mg BID (N = 3)
  Patients with AEs: 3 (100) n, (%)
  Patients with AEs that had an outcome of death: 0 n, (%)
  Patients with AEs that led to study treatment discontinuation: 0 n, (%)
  Patients with Grade ≥ 3 AEs: 2 (66.7) n, (%)
  Patients with SAEs: 1 (33.3) n, (%)
  Patients with treatment-related AEs: 3 (100) n, (%)
  Patients with treatment-related and Grade ≥ 3 AEs: 0 n, (%)
100 mg BID (N = 3)
  Patients with AEs: 3 (100) n, (%)
  Patients with AEs that had an outcome of death: 0 n, (%)
  Patients with AEs that led to study treatment discontinuation: 1 (33.3) n, (%)
  Patients with Grade ≥ 3 AEs: 0 n, (%)
  Patients with SAEs: 0 n, (%)
  Patients with treatment-related AEs: 3 (100) n, (%)
  Patients with treatment-related and Grade ≥ 3 AEs: 0 n, (%)
150 mg BID (N = 6)
  Patients with AEs: 6 (100) n, (%)
  Patients with AEs that had an outcome of death: 1 (16.7) n, (%)
  Patients with AEs that led to study treatment discontinuation: 1 (16.7) n, (%)
  Patients with Grade ≥ 3 AEs: 3 (50.0) n, (%)
  Patients with SAEs: 4 (66.7) n, (%)
  Patients with treatment-related AEs: 5 (83.3) n, (%)
  Patients with treatment-related and Grade ≥ 3 AEs: 2 (33.3) n, (%)
150 mg BID, after 1 cycle (21 days)
  Patients with fatal cardiac arrest (Grade 5): one
200 mg BID (N = 7)
  Patients with AEs: 7 (100) n, (%)
  Patients with AEs that had an outcome of death: 0 n, (%)
  Patients with AEs that led to study treatment discontinuation: 1 (14.3) n, (%)
  Patients with Grade ≥ 3 AEs: 4 (57.1) n, (%)
  Patients with SAEs: 3 (42.9) n, (%)
  Patients with treatment-related AEs: 6 (85.7) n, (%)
  Patients with treatment-related and Grade ≥ 3 AEs: 4 (57.1) n, (%)
1 in each of the 200-mg and 150-mg BID cohorts, ECOG 1 at baseline
  Patients who worsened to an ECOG status of 2: 2
1 patient of 19
  Treatment discontinuation due to AEs: 5.3%
  Treatment discontinuation due to fatal cardiac arrest: 5.3%
50-mg dose level cohort
  Patients with diarrhea at a severity ≥Grade 3: 1
[1]
  Patients with diarrhea: 66.7%
  Patients with hyperuricemia: 66.7%
100-mg dose level cohort, all 3
  Patients with diarrhea (all Grade 1 or Grade 2): 100%
200-mg dose
  Patients with diarrhea at a severity ≥Grade 3: 3
200-mg dose, 2/7
  Patients with asthenia: 28.6%
  Patients with decreased appetite: 28.6%
  Patients with dry skin: 28.6%
  Patients with edema peripheral: 28.6%
  Patients with hypokalemia: 28.6%
  Patients with nausea: 28.6%
  Patients with vomiting: 28.6%
200-mg dose, 3/7
  Patients with cough: 42.9%
  Patients with dermatitis acneiform: 42.9%
  Patients with fatigue: 42.9%
  Patients with pyrexia: 42.9%
200-mg dose, 5/7
  Patients with anemia: 71.4%
200-mg dose, 6 of 7
  Patients with diarrhea: 85.7%
[2]
  Adverse events experienced in ≥10% patients, Grade 1: 3 (100) n (%)
  Adverse events experienced in ≥10% patients, Grade 2: 1 (33.3) n (%)
  Adverse events experienced in ≥10% patients, Grade 3: 2 (66.7) n (%)
  Adverse events experienced in ≥10% patients, Grade 4: 1 (33.3) n (%)
  Adverse events experienced in ≥10% patients, Grade 5: 0 n (%)
  Adverse events experienced in ≥10% patients, Total: 3 (100) n (%)
  Adverse events experienced in ≥10% patients, ≥Grade 3: 2 (66.7) n (%)
  Diarrhea, Grade 1: 2 (66.7) n (%)
  Diarrhea, Grade 2: 1 (33.3) n (%)
  Diarrhea, Grade 3: 1 (33.3) n (%)
  Diarrhea, Grade 4: 0 n (%)
  Diarrhea, Grade 5: 0 n (%)
  Diarrhea, Total: 2 (66.7) n (%)
  Diarrhea, ≥Grade 3: 1 (33.3) n (%)
  Hyperuricemia, Grade 1: 2 (66.7) n (%)
  Hyperuricemia, Grade 2: 0 n (%)
  Hyperuricemia, Grade 3: 0 n (%)
  Hyperuricemia, Grade 4: 0 n (%)
  Hyperuricemia, Grade 5: 0 n (%)
  Hyperuricemia, Total: 2 (66.7) n (%)
  Hyperuricemia, ≥Grade 3: 0 n (%)
[3]
  Adverse events experienced in ≥10% patients, Grade 1: 3 (100) n (%)
  Adverse events experienced in ≥10% patients, Grade 2: 2 (66.7) n (%)
  Adverse events experienced in ≥10% patients, Grade 3: 0 n (%)
  Adverse events experienced in ≥10% patients, Grade 4: 0 n (%)
  Adverse events experienced in ≥10% patients, Grade 5: 0 n (%)
  Adverse events experienced in ≥10% patients, Total: 3 (100) n (%)
  Adverse events experienced in ≥10% patients, ≥Grade 3: 0 n (%)
  Diarrhea, Grade 1: 3 (100) n (%)
  Diarrhea, Grade 2: 1 (33.3) n (%)
  Diarrhea, Grade 3: 0 n (%)
  Diarrhea, Grade 4: 0 n (%)
  Diarrhea, Grade 5: 0 n (%)
  Diarrhea, Total: 3 (100) n (%)
  Diarrhea, ≥Grade 3: 0 n (%)
[4]
  Adverse events experienced in ≥10% patients, Grade 1: 6 (85.7) n (%)
  Adverse events experienced in ≥10% patients, Grade 2: 7 (100) n (%)
  Adverse events experienced in ≥10% patients, Grade 3: 4 (57.1) n (%)
  Adverse events experienced in ≥10% patients, Grade 4: 0 n (%)
  Adverse events experienced in ≥10% patients, Grade 5: 0 n (%)
  Adverse events experienced in ≥10% patients, Total: 7 (100) n (%)
  Adverse events experienced in ≥10% patients, ≥Grade 3: 4 (57.1) n (%)
  Anemia, Grade 1: 2 (28.6) n (%)
  Anemia, Grade 2: 3 (42.9) n (%)
  Anemia, Grade 3: 1 (14.3) n (%)
  Anemia, Grade 4: 0 n (%)
  Anemia, Grade 5: 0 n (%)
  Anemia, Total: 5 (71.4) n (%)
  Anemia, ≥Grade 3: 1 (14.3) n (%)
  Asthenia, Grade 1: 2 (28.6) n (%)
  Asthenia, Grade 2: 1 (14.3) n (%)
  Asthenia, Grade 3: 0 n (%)
  Asthenia, Grade 4: 0 n (%)
  Asthenia, Grade 5: 0 n (%)
  Asthenia, Total: 2 (28.6) n (%)
  Asthenia, ≥Grade 3: 0 n (%)
  Cough, Grade 1: 3 (42.9) n (%)
  Cough, Grade 2: 0 n (%)
  Cough, Grade 3: 0 n (%)
  Cough, Grade 4: 0 n (%)
  Cough, Grade 5: 0 n (%)
  Cough, Total: 3 (42.9) n (%)
  Cough, ≥Grade 3: 0 n (%)
  Decreased appetite, Grade 1: 1 (14.3) n (%)
  Decreased appetite, Grade 2: 1 (14.3) n (%)
  Decreased appetite, Grade 3: 0 n (%)
  Decreased appetite, Grade 4: 0 n (%)
  Decreased appetite, Grade 5: 0 n (%)
  Decreased appetite, Total: 2 (28.6) n (%)
  Decreased appetite, ≥Grade 3: 0 n (%)
  Dermatitis acneiform, Grade 1: 2 (28.6) n (%)
  Dermatitis acneiform, Grade 2: 1 (14.3) n (%)
  Dermatitis acneiform, Grade 3: 0 n (%)
  Dermatitis acneiform, Grade 4: 0 n (%)
  Dermatitis acneiform, Grade 5: 0 n (%)
  Dermatitis acneiform, Total: 3 (42.9) n (%)
